Source: patent publication US11506670B2, “Method of genome-wide direct identification of electrophile-sensing targets” (Cornell University, priority 2018, dated 2022)

How the values were obtained:
[1] = system: HaloTag-fused proteins of interest (POI); test: T-REX targeting efficiency by Click coupling, in-gel fluorescence; format: cell-based; settings: equation of Step 40A (ix)
Procedure: (i) For mammalian cells, add 15 μL freshly prepared lysis buffer (50 mM Hepes pH 7.6, 0.3 mM TCEP and 1% Nonidet p-40) to mammalian cell pellets from Step 2A above and subject to 3 cycles of freeze-thaw. For E. coli cells, resuspend cell pellet in 100 μL lysis buffer consisting of 50 mM HEPES pH 7.6, 2 mM TCEP, 1% Nonidet p-40, 150 μg/mL Lysozyme, 5 μg/mL DNAse-I. Incubate for 20 min at room temperature with agitation. For mammalian cells make sure the cells are resuspended well in lysis buffer.
(iv) Dilute a portion of the clarified lysate to 1 mg/mL in a final volume of ˜25 μL containing 50 mM Hepes pH 7.6, 0.3 mM TCEP, and 0.2 mg/mL His6-TEV-S219V. Incubate at 37° C. for 45 min. The optimal concentration of lysate protein is ˜1.0 mg/mL. High concentration of lysate protein causes failure of Click coupling. Precipitates may appear upon adding His6-TEV-S219V. […]
(vii) Upon completion of the gel-electrophoresis, rinse the gel with ddH2O 20 mL (×2, 5 min) and analyze for Cy5 signal using a ChemiDoc-MP imaging system (Bio-Rad) (see Equipment Setup). Any alternative fluorescence gel imager platforms can be used in this step. […]
(x) Bio-Rad Image Lab™ software is used to quantitate the intensities of Cy5 signal and western blot signal. […] Click on “Analysis table” to generate the quantitated signal intensities corresponding to selected bands. […]

Nrf2-AR pathway = test: Flow cytometry ARE-GFP reporter assay; format: cell-based, human
Procedure: (i) Transient transfection using TransIT-2020. Perform the transfection as described in Step 40 Option (C) (i). Briefly: Transfect the cells with ARE:GFP, pFN21a-Halo-Keap1, and pcDNA3.1 myc-Nrf2 in a 3:1:1 ratio by mass. For transient transfection of cells in a single well of a 48-well plate, in 26 μL of antibiotic-free, serum-free media add 156 ng of ARE:GFP, 52 ng of pFN21a-Halo-TEV-Keap1, and 52 ng of pcDNA3.1 myc-Nrf2 (260 ng total) followed by the addition of 0.78 μL of TransIT-2020. The lipoplex is mixed gently and incubated at room temperature for 20 min.
(iv) Treatment of cells with T-REX™ delivery photocaged precursor and photo-uncaging (TIMING: 7 hours). […]
In this flow cytometry assay, live cells are first gated by forward (size) and side scatter to give a general population of healthy cells (FIG. 26A). […] Analyzing this scatter group for green fluorescence (AR reporter) told a slightly different story to that painted by previous ensemble experiments (Parvez et al., “Substoichiometric Hydroxynonenylation of a Single Protein Recapitulates Whole-Cell-Stimulated Antioxidant Response,” J. Am. Chem. Soc. 137:10-13 (2015); Lin et al., “A Generalizable Platform for Interrogating Target- and Signal-Specific Consequences of Electrophilic Modifications in Redox-Dependent Cell Signaling,” J. Am. Chem. Soc. 137:6232-44 (2015), which are hereby incorporated by reference in their entirety).

## CCCCCC(O)/C=C/C=O (stereo not drawn) [HNE, 4-hydroxynonenal]
[1]
  targeting efficiency: 10-40%
Nrf2-AR pathway; T-REX delivery on Halo-Keap1
  AR-driven GFP signal: increase in AR in all but cells with the highest basal AR
Nrf2-AR pathway; whole-cell HNE treatment
  AR-driven GFP signal: strongly increases AR in a subset of cells
